Data reported in patent US20030203388A1, “Method for determining genotoxicity” (Pfizer Inc., priority 2002, published 2003).

What was measured:
[1] = tested on: GADD45β (X54149), GADD45 (U00937), AV138783, AI847051, AF055638, AI461837; experiment: gene expression analysis (Affymetrix mouse microarray chip U74); format: cell-based; conditions: L5178Y cells treated four hours
Experimental: Mouse lymphoma cell line L5178Y (ATCC No. CRL 9518, ATCC) were cultivated in RPMI medium (Invitrogen Life Technologies, Inc., Carlsbad, Calif.) supplemented with 10% fetal bovine serum and antibiotics penicillin and streptomycin at 37° C. Cells from exponentially growing cultures were seeded at a concentration 3×10^5 cells/ml and incubated for 24 hours and maintained below 1×10^6 cells/ml. […] After the treatment, the cells were washed in PBS (Invitrogen Life Technologies, Inc., Carlsbad, Calif.). Half of the cells where then immediately frozen and stored at −80° C. prior to gene expression analysis, as described in Example 2 below. The other half was allowed to recover in a fresh growth medium for 20 hours. Cell viability was determined based on a cell count. Cell viability results appear in FIG. 1 and FIG. 2 as a ratio between treated versus vehicle control. […]
Gene expression was measured using Affymetrix GeneChip® technology (Affymetrix, Inc., Santa Clara, Calif.) using standard protocols available from Affymetrix (see, GeneChip® Expression Analysis, Technical Manual, Rev. 2 (2001), Affymetrix, Inc., available at http://www.affymetrix.com/pdf/expression_manual.pdf). […] The hybridized chips were scanned using a Hewlett Packard GeneArray™ Scanner, (Hewlett Packard Company, Palo Alto, Calif.) and the resulting data were evaluated using Affymetrix Microarray suite software (Affymetrix). […]

[2] = tested on: L5178Y cells; experiment: in vitro micronucleus assay; format: cell-based, mouse; conditions: L5178Y cells treated four hours, 20 hours recovery; sodium chloride at high concentrations
Experimental: Mouse lymphoma cell line L5178Y (ATCC No. CRL 9518, ATCC) were cultivated in RPMI medium (Invitrogen Life Technologies, Inc., Carlsbad, Calif.) supplemented with 10% fetal bovine serum and antibiotics penicillin and streptomycin at 37° C. Cells from exponentially growing cultures were seeded at a concentration 3×10^5 cells/ml and incubated for 24 hours and maintained below 1×10^6 cells/ml. […] After the treatment, the cells were washed in PBS (Invitrogen Life Technologies, Inc., Carlsbad, Calif.). […] The other half was allowed to recover in a fresh growth medium for 20 hours. Cell viability was determined based on a cell count. […] The cells were then harvested for use in the in vitro micronucleus assay of Example 3 below.
Treated cells prepared according to Example 1 were attached to glass slides by dropping them onto the glass slides using a pipette after hypotonic treatment with 75 mM KCl (Sigma-Aldrich Corp., St Louis, Mo.) and fixation with 3:1 (v/v) MeOH:acetic acid (JT Baker, Inc., Phillipsburg, N.J.). The cells were then stained using 31.25 μg/ml solution of acridine orange (Molecular Probes, Inc., Eugene, Oreg.).
Micronuclei were counted using a Axiokop 2 fluorescent microscopy (Carl Zeiss Microlmaging, Inc., Thornwood, N.Y.).

SMILES	expression of GADD45β (X54149) and GADD45 (U00937) [1]	genotoxic stress, as demonstrated using a micronucleus assay [2]	level of expression of these genes (GADD45β, GADD45, AV138783, AI847051, AF055638, AI461837) [1]
N.N.[Cl][Pt][Cl] [cisplatin]	increased expression		
[Cl-].[Na+] [sodium chloride]		show evidence of genotoxic stress	no effect
